Where two headings read alike, the source gives them in different places.
Tests used:
MDR1 [1] = test: in vitro; details: dog, MDCK-MDR1, pH 7.4
MDR1 (P-gp) [2] = test: in vitro; details: dog, MDCK-MDR1, pH 7.4
[3] = tested on: mHTT protein in GM04724 (CAG 70/20) Huntington's disease patient lymphoblast cells; test: mHTT protein assay, 2B7-MW1 assay via Mesoscale Discovery (MSD); type: cell-based, human
How it was run: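 Signal from the 2B7-MW1 antibody pair on MSD, rising with polyQ length and smaller HTT fragments, measured mHTT after 48 h compound exposure (0.6 nM–10 μM) in GM04724 cells. A parallel replicate plate gave CellTiter Glo viability.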

[4] = tested on: SMN protein in spinal muscular atrophy (SMA) patient fibroblasts (GM03813, Coriell); test: SMN protein assay, Mesoscale Discovery (MSD); type: cell-based, human; details: for EC50: read-out: SMN2 protein EC50
How it was run: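 Absolute SMN levels were quantified by MSD against an SMN protein standard curve (1 μg/ml to 19.5 pg/ml) run on each plate. Samples were lysates of GM03813 patient fibroblasts (7000 cells/well) treated 48 hours with compound doses from 2.5 μM down to 0.6 nM.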

[5] = tested on: MDR1-MDCK cell monolayers; details: dog, MDCK-MDR1, 120 min, 5 μM, pH 7.4
[6] = Quantitative splicing assay (HTT), qPCR; type: cell-based, human; details: Homo sapiens; GM04724 lymphoblasts, 24 h, qPCR; read-out: HTT Splicing: E49-50 EC50
How it was run: (§1)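 TaqMan qPCR on cell-lysate cDNA quantifies cryptic-exon inclusion from HTT intron 49. Lymphoblasts plated at 50,000 cells/well had received compound for 24 h, 0.15 nM-2.5 uM range, 0.1% DMSO.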

[7] = tested on: MDR1-MDCK cell monolayers; test: Blood-brain-barrier (BBB) penetration potential via MDCK-MDR1 permeability assay; details: for MDCK-MDR1: % Recov A-B / MDCK-MDR1: Papp A-B: A-B direction; for MDCK-MDR1: % Recov B-A / MDCK-MDR1: Papp B-A: B-A direction; for MDCK-MDR1: Efflux: efflux ratio
[8] = tested on: Huntingtin (HTT) transcripts, cryptic exon within intron 49, in GM04724 (CAG 70/20) Huntington's disease patient lymphoblasts; test: Quantitative splicing assay (HTT), qPCR; type: cell-based, human; details: 24 h, qPCR, read-out: HTT Splicing: E49-50 EC50
How it was run: as §1

MDR1 [9] = test: Blood-brain-barrier (BBB) penetration potential via MDCK-MDR1 permeability assay; details: dog, MDCK-MDR1, pH 7.4, MDCK-MDR1: Efflux, efflux ratio
MDR1 (P-gp) [10] = test: as above; details: dog
[11] = tested on: SMN FL and SMN Δ7 in spinal muscular atrophy (SMA) patient fibroblasts (GM03813, Coriell); test: Quantitative splicing assay (SMN), qPCR; type: cell-based, human; details: Homo sapiens, Fibroblast, SMA patient fibroblasts GM03813, 24 h, qPCR, read-out: SMN2 Splicing FL EC50
Procedure: Spinal muscular atrophy (SMA) patient fibroblasts (GM03813, Coriell) are plated in 96-well plates at 50,000 cells/well. […] Treated cells are lysed and cDNA synthesized using the Fast Advanced Cells-to-Ct kit (Thermofisher A35378) according to the manufacturer's instructions. 2 μL of each cDNA are used in qPCR reactions. […] Reactions are run in a Quant Studio 6 qPCR instrument with default settings.

[12] = GM04724 Huntington's disease patient lymphoblasts
[13] = SMA patient fibroblasts GM03813, 48 hours, MSD
[14] = GM04724 (CAG 70/20) Huntington's disease patient lymphoblasts
[15] = SMA patient fibroblasts (GM03813), 48 hours

| SMILES | efflux ratio at 120 min, 5 μM (MDR1 [1]) | Papp A→B at 120 min, 5 μM (MDR1 (P-gp) [2]) | Papp B→A at 120 min, 5 μM (MDR1 (P-gp) [2]) | EC50 [3, 12] | MDCK-MDR1: % Recov A-B [5] | MDCK-MDR1: % Recov B-A [5] | EC50 [4, 13] | mHTT protein EC50 [3, 14] | further results |
| --- | --- | --- | --- | --- | --- | --- | --- | --- | --- |
| CN(c1ccc(-c2cc(C#N)ccc2O)nn1)[C@H]1C[C@@H]2CC[C@@H](N2)[C@H]1F (single isomer, unassigned) [Compound 70B] | 15 | 3.84 ×10⁻⁶ cm/s | 58.1 ×10⁻⁶ cm/s | 101 to 500 nM | 95% | 100% | – | – | SMN2 protein EC50 [4, 13]: E (501 ≤ E ≤ 10.000); EC50 [6]: 10 to 501 nM |
| CN(c1ccc(-c2ccc(-c3cnn(C)c3)cc2O)nn1)C1CC2COCC(N2)C1F (single isomer, unassigned) [Compound 80B] | – | – | – | 16 to 50 nM | – | – | 101 to 500 nM | – | MDCK-MDR1: % Recov A-B [7]: 76%; MDCK-MDR1: Papp A-B [7]: 6.01 10^−6, cm/s; MDCK-MDR1: % Recov B-A [7]: 87%; MDCK-MDR1: Papp B-A [7]: 40.8 10^−6, cm/s; MDCK-MDR1: Efflux [7]: 7; EC50 [8]: 51 to 100 nM |
| CN(c1ccc(-c2cc3ccn(C)c(=O)c3cc2O)nn1)[C@H]1C[C@@H]2CC[C@H]([C@H]1F)N2C (single isomer, unassigned) [Compound 97B] | 27 | 1.96 ×10⁻⁶ cm/s | 53.1 ×10⁻⁶ cm/s | 101 to 500 nM | 85% | 83% | 101 to 500 nM | – | EC50 [6]: 101 to 500 nM |
| CN(c1ccc(-c2ccc(-c3cn[nH]c3)cc2O)nn1)C1CC2COCC(N2)C1F (stereo not drawn) [Compound 8A] | – | – | – | 0.01 to 15 nM | – | – | 101 to 500 nM | – | MDCK-MDR1: % Recov A-B [7]: 87%; MDCK-MDR1: % Recov B-A [7]: 93%; efflux ratio at 120 min, 5 μM (MDR1 [9]): 36; Papp A→B at 120 min, 5 μM (MDR1 (P-gp) [10]; MDCK-MDR1, pH 7.4, MDCK-MDR1: Papp A-B, A-B direction): 1.67 ×10⁻⁶ cm/s; Papp B→A at 120 min, 5 μM (MDR1 (P-gp) [10]; MDCK-MDR1, pH 7.4, MDCK-MDR1: Papp B-A, B-A direction): 59.3 ×10⁻⁶ cm/s; EC50 [8]: 16 to 50 nM |
| CN(c1ccc(-c2ccc(-c3cn[nH]c3)cc2O)nn1)C1CC2COCC(N2)C1F (stereo not drawn) [Compound 8B] | – | – | – | 0.01 to 15 nM | – | – | 16 to 50 nM | – | MDCK-MDR1: % Recov A-B [7]: 84%; MDCK-MDR1: Papp A-B [7]: 2.04 10^−6, cm/s; MDCK-MDR1: % Recov B-A [7]: 98%; MDCK-MDR1: Papp B-A [7]: 39.1 10^−6, cm/s; MDCK-MDR1: Efflux [7]: 19; EC50 ([11]; 24 h): 16 to 50 nM; EC50 [8]: 0.01 to 15 nM |
| CNC(=O)c1cc(O)c(-c2ccc(N(C)[C@@H]3C[C@H]4CC[C@H](N4)[C@@H]3F)nn2)cc1F [Compound 47A, 2-fluoro-4-(6-(((1S,2S,3R,5R)-2-fluoro-8-azabicyclo[3.2.1]octan-3-yl)(methyl)amino)pyridazin-3-yl)-5-hydroxy-N-methylbenzamide] | 34 | 1.45 ×10⁻⁶ cm/s | 49.3 ×10⁻⁶ cm/s | 101 to 500 nM | 98% | 108% | 101 to 500 nM | – | EC50 [11]: 501 to 10000 nM |
| Cn1cnc2cc(-c3ccc(N(C4CC4)[C@@H]4C[C@H]5CC[C@H](N5)[C@@H]4F)nn3)c(O)cc2c1=O [Compound 56A, 7-(6-(cyclopropyl((1S,2S,3R,5R)-2-fluoro-8-azabicyclo[3.2.1]octan-3-yl)amino)pyridazin-3-yl)-6-hydroxy-3-methylquinazolin-4(3H)-one] | 56 | 0.92 ×10⁻⁶ cm/s | 51.4 ×10⁻⁶ cm/s | 101 to 500 nM | 83% | 83% | 101 to 500 nM | – | EC50 [6]: 10 to 501 nM |
| CN(c1ccc(-c2cc3cnccc3cc2O)nn1)[C@@H]1C[C@H]2CC[C@@H]([C@@H]1F)N2C [Compound 93A, 7-(6-(((1S,2S,3R,5R)-2-fluoro-8-methyl-8-azabicyclo[3.2.1]octan-3-yl)(methyl)amino)pyridazin-3-yl)isoquinolin-6-ol] | 3 | 5.27 ×10⁻⁶ cm/s | 17.9 ×10⁻⁶ cm/s | – | 50% | 70% | 101 to 500 nM | – | mHTT protein EC50 [3, 12]: E (501 ≤ E ≤ 10.000) |
| Cc1cc(=O)c2cc(O)c(-c3ccc(N(C)[C@@H]4C[C@H]5CC[C@@H]([C@@H]4F)N5C)nn3)cc2o1 [Compound 99A, 7-(6-(((1S,2S,3R,5R)-2-fluoro-8-methyl-8-azabicyclo[3.2.1]octan-3-yl)(methyl)amino)pyridazin-3-yl)-6-hydroxy-2-methyl-4H-chromen-4-one] | 18 | 2 ×10⁻⁶ cm/s | 36.3 ×10⁻⁶ cm/s | – | 114% | 91% | – | E (501 ≤ E ≤ 10.000) | EC50 [4, 15]: 101 to 500 nM |
| CN(c1ccc(-c2cc3c(=O)n(C)cnc3cc2O)nn1)[C@@H]1C[C@H]2CC[C@@H]([C@@H]1F)N2C [Compound 102A, 6-(6-(((1S,2S,3R,5R)-2-fluoro-8-methyl-8-azabicyclo[3.2.1]octan-3-yl)(methyl)amino)pyridazin-3-yl)-7-hydroxy-3-methylquinazolin-4(3H)-one] | 41 | 1.43 ×10⁻⁶ cm/s | 58.1 ×10⁻⁶ cm/s | – | 88% | 92% | – | E (501 ≤ E ≤ 10.000) | EC50 [4, 15]: 101 to 500 nM |
| CN(c1ccc(-c2cc(F)c(-n3ccnn3)cc2O)nn1)[C@@H]1C[C@H]2CC[C@@H]([C@@H]1F)N2C [Compound 103A, 4-fluoro-2-(6-(((1S,2S,3R,5R)-2-fluoro-8-methyl-8-azabicyclo[3.2.1]octan-3-yl)(methyl)amino)pyridazin-3-yl)-5-(1H-1,2,3-triazol-1-yl)phenol] | 4 | 13.9 ×10⁻⁶ cm/s | 60.3 ×10⁻⁶ cm/s | – | 86% | 91% | – | E (501 ≤ E ≤ 10.000) | SMN2 protein EC50 [4, 15]: E (501 ≤ E ≤ 10.000) |
| Cc1nc2cc(-c3ccc(N(C)[C@@H]4C[C@H]5CC[C@@H]([C@@H]4F)N5C)nn3)c(O)cc2c(=O)n1C [Compound 105A, 7-(6-(((1S,2S,3R,5R)-2-fluoro-8-methyl-8-azabicyclo[3.2.1]octan-3-yl)(methyl)amino)pyridazin-3-yl)-6-hydroxy-2,3-dimethylquinazolin-4(3H)-one] | 99 | 0.58 ×10⁻⁶ cm/s | 56.9 ×10⁻⁶ cm/s | – | 105% | 115% | – | – | EC50 [3, 14]: 101 to 500 nM; EC50 [4, 15]: 101 to 500 nM |
| CN(c1ccc(-c2cc3oc(C(=O)N4CCC4)cc3cc2O)nn1)[C@@H]1C[C@H]2CC[C@@H]([C@@H]1F)N2C [Compound 107A, azetidin-1-yl(6-(6-(((1S,2S,3R,5R)-2-fluoro-8-methyl-8-azabicyclo[3.2.1]octan-3-yl)(methyl)amino)pyridazin-3-yl)-5-hydroxybenzofuran-2-yl)methanone] | 43 | 1.27 ×10⁻⁶ cm/s | 55.1 ×10⁻⁶ cm/s | – | 80% | 82% | – | E (501 ≤ E ≤ 10.000) | SMN2 protein EC50 [4, 15]: E (501 ≤ E ≤ 10.000) |
